Laboratory results reported in patent publication US8975259B2, “Compositions and methods for inhibiting G protein signaling” (University of Rochester, priority 2007, dated 2015).
Where two headings read alike, the source gives them in different places.

Key:
[1] = system: Rac1 activation in differentiated HL60 cells; experiment: fMLP-induced Rac1 activation in differentiated HL60 cells; assay type: cell-based, human; settings: 10 μM compound, 1 μM fMLP; result in words
Protocol: (§1) Differentiated HL60 cells stably expressing GFP-PH-Akt were challenged with 250 nM fMLP in the presence and absence of 10 μM concentrations of the indicated compounds. Translocation of GFP-PH-Akt to the plasma membrane was evaluated by Western blot. Quantification shown below. ***, P<0.001 analysis of variance (ANOVA) is statistically different from control (PBS+vehicle). […] Differentiated HL60 cells were challenged with 1 μM fMLP in the presence and absence of 10 μM concentrations of the indicated compounds. Rac1 activation was assessed by Western blots of affinity-precipitated GTP-Rac1 from HL60 cell lysates. Western blot shown is representative of three independent experiments and quantitation contains data pooled from three independent experiments±S.E.M. *P<0.05 ANOVA is statistically different from control (DMSO only). n=3. […] Differentiated HL60 cells were challenged with 250 nM fMLP or 250 nM PMA in the presence and absence of 10 μM compounds or 100 nM Wortmannin (Wtmn). NADPH oxidase activity was determined after reaction with NBT by absorbance at 540 nm. Data shown is contains data pooled from three independent experiments (each in duplicate)±S.E.M. *, P<0.05 ANOVA is statistically different from control (DMSO only).
HL60 cells (differentiated for 4 days) were washed with and resuspended in NaCl buffer to a final concentration of 20×10^6 cells/ml. Cells (10×10^6/reaction) were pretreated with 10 μMGβγ inhibitor (in DMSO) for 10 min before challenge with 1 μM fMLP for 90 s in a 37° C. water bath and then immediately transferred to an ice-water bath. Cells were recovered by centrifugation at 500 g and washed two times with ice-cold Tris-buffered saline, pH 7.4. […] Chemiluminescence was analyzed using a charge-coupled device camera in a UVP Epi-Chem II Darkroom imaging system. Results were expressed as percent fMLP-stimulated GTP Rac1 normalized to total Rac1 with the background subtracted.

[2] = system: isolated adult mouse cardiomyocytes; experiment: Contractility of isolated adult mouse cardiomyocytes; assay type: cell-based; settings: result in words
Protocol: Pretreatment with the general β-AR antagonist, propranolol, abolishes the effects of M119 and Iso on cardiomyocyte contractility.
The above data led to investigations that M119 plays a positive functional role in the heart, due in part to its inhibition of Gβγ-GRK2 interactions. Prior to pursuing in vivo studies with M119, the role of M119 affecting contractility was evaluated by assessment of isolated adult mouse cardiomyocyte contractility at baseline and in response to β-AR stimulation.
Mechanical properties of ventricular myocytes are assessed by an IonOptix Myocam system (IonOptix Inc., Milton, Mass., U.S.A.). Myocytes are superfused (at 25° C.) with Tyrodes, cells are pre-loaded in culture medium for 20 minutes with Fura-2, for concurrent calcium flux and myocyte contractility following field stimulation at 0.5 Hz.

[3] = system: NADPH oxidase activity in fMLP-challenged HL60 cells; experiment: fMLP-dependent superoxide production (NBT) in differentiated HL60 cells; assay type: cell-based, human; settings: 10 μM compounds or 100 nM wortmannin, 250 nM fMLP; result in words
Protocol: as §1
The nitro blue tetrazolium (NBT) method was used to assess the effects of Gβγ inhibitors on NADPH oxidase activity. HL60 cells (differentiated for 4 days) were washed with and resuspended in HBSS containing calcium and magnesium (Cellgro; Mediatech, Herndon Va.) to a final concentration of 2×10^6 cells/ml. Cells (1×10^6/reaction) were pretreated with 10 μMGβγ inhibitor compound (in DMSO) or 100 nM wortmannin (Sigma Aldrich) for 10 min at 37° C. before the addition of NBT (25 μl of 10 mg/ml in methanol) and then incubated or an additional 5 min at 37° C. All treatments contained the same final concentration of DMSO. […] Cell pellets were then resuspended in 200 μl of DMSO, transferred to a 96-well plate, and absorbance was measured at 540 nm. […]

Gβ1γ2 = Gβ1γ2 (UniProt P54311+P63212); experiment: Surface plasmon resonance direct binding to Gβ1γ2; parameters: made in house; host or cells: Sf9 insect cells (baculovirus); settings: for kon: read-out: association rate constant (kon, ka); for koff: read-out: dissociation rate constant (koff, kd)
Sequence of Gβ1γ2 (P54311 whole entry): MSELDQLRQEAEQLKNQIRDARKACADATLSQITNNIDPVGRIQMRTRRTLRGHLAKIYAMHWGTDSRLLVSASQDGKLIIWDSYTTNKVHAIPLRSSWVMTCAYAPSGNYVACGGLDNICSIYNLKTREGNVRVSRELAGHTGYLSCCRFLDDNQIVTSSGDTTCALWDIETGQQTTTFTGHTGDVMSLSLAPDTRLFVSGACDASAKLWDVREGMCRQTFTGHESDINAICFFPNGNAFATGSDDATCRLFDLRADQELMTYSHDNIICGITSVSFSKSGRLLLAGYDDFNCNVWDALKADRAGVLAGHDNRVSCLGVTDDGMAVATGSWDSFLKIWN
Sequence of Gβ1γ2 (P63212 2-68 limits assumed): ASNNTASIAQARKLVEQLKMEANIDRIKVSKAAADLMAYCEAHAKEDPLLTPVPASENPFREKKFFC
Excerpt: To understand the protein binding characteristics of compounds a surface plasmon resonance (SPR) method was developed for monitoring direct small molecule binding to G βγ subunits using a Reichert SPR instrument. In addition to binding affinity, binding kinetics can be obtained from this analysis. […] To obtain the data in herein, 3000 refractive index units (RIU) of Gβ1γ2 was immobilized to maximize detection of small molecule binding (Karlsson et al., 2006; Markgren et al., 2001; Rich et al., 2001) and compounds were injected at 75 μl/min and changes in bulk refractive index were accounted for in a reference flow cell. […] This method is used to analyze compound binding kinetics and calculate equilibrium binding constants to test the mechanisms of action and selectivity of various “hot spot” binding compounds.
Direct binding of “hot spot” binding small molecules was assessed using the Reichert SR7000 Surface Plasmon Resonance dual chamber instrument equipped with an autosampler (Reichert, Depew, N.Y.). To activate the sensor chip surface, a mixture of 0.1 M 1-ethyl-3-(3-dimethylaminopropyl) carbodiimide hydrochloride and 0.05 M N-hydroxysuccinimide was injected (flow rate 5 μl/min) over the sensor surface. Streptavidin (100 μg/ml; prepared in 20 mM sodium acetate buffer, pH 5.5) was coupled to the sensor chip surface followed by quenching the remaining activated carboxyl groups with 1 M ethanolamine, pH 8.5. bGβ1γ2 was conjugated to the streptavidin-coated chip in running buffer (50 mM HEPES, pH 7.6, 1 mM EDTA, 100 mM NaCl, 0.1% C12E10, and 1 mM dithiothreitol) to achieve 2000 micro-refractive index units. A second reference cell was treated similarly, but bGβ1γ2 was excluded. Direct binding of small molecules was tested out at room temperature with a flow rate of 75 μl/min. Compounds were prepared in running buffer and injected for 10 min followed by a dissociation phase of 10 min. The obtained sensorgrams were corrected for nonspecific background by running the same experiment in series over an identical sensor surface with immobilized streptavidin, blocked with biotin, without bGβγ. […] Best fit kinetic parameters were determined using kinetic titration model and ClampXP ver. 3.5, which accounts for incomplete dissociation between injections (Karisson et al., 2006).

O=C(O)C1CCCCC1c1c2ccc(=O)cc-2oc2cc(O)ccc12 (stereo not drawn) [Compound M119B]
effect on fMLP-induced Rac1 activation [1]: little effect | effect on cardiomyocyte contractility at baseline and with isoproterenol [2]: no effect | effect on fMLP-dependent superoxide production [3]: did not significantly affect

O=C(O)C1CCCCC1c1c2ccc(=O)c(O)c-2oc2c(O)c(O)ccc12 (stereo not drawn) [Compound M119, cyclohexanecarboxylic acid, 2-(4,5,6-trihydroxy-3-oxo-3H-xanthen-9-yl)-(9cl)]
effect on fMLP-induced Rac1 activation [1]: inhibited | effect on cardiomyocyte contractility at baseline and with isoproterenol [2]: enhanced | effect on fMLP-dependent superoxide production [3]: significantly inhibited | Kd (Gβ1γ2): 0.1 µM | kon (Gβ1γ2; SPR): 2000 M⁻¹ s⁻¹ | koff (Gβ1γ2; SPR): 0.0002 s⁻¹

O=C(O)c1ccccc1-c1c2ccc(=O)c(O)c-2oc2c(O)c(O)ccc12 (racemic) [Gallein]
effect on fMLP-induced Rac1 activation [1]: inhibited | effect on cardiomyocyte contractility at baseline and with isoproterenol [2]: significant positive effects | effect on fMLP-dependent superoxide production [3]: significantly inhibited | Kd (Gβ1γ2; SPR, read-out: Kd): ~0.4 µM | kon (Gβ1γ2; SPR): 1130 ± 17 M⁻¹ s⁻¹ | koff (Gβ1γ2; SPR): 0.00043 s⁻¹
